Assay results taken from patent publication US8859584B2, “TRPV1 antagonists” (AbbVie Inc., priority 2011, dated 2014).

What was measured:
human TRPV1 [1] = target: T1, human TRPV1 (Homo sapiens, UniProt Q8NER1); test: Capsaicin Activation Assay (FLIPR intracellular Ca2+, recombinant HEK293 cells); assay type: cell-based; conditions: recombinant HEK293 cells expressing hTRPV1; 50 nM capsaicin; read-out: human TRPV1 capsaicin IC50
T1 construct: expressed in transfected cells

human TRPV1 [2] = target: T1, human TRPV1; test: Acid Activation Assay (pH 5.0, FLIPR intracellular Ca2+, recombinant HEK293 cells); assay type: cell-based; conditions: percentage of maximal pH 5.0-induced response remaining; HEK293 hTRPV1; max concentration 37.5 μM
Method in brief: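 HEK293 cells stably expressing recombinant hTRPV1 were loaded with calcium dye for 90-120 min at 25° C and pre-treated with compound for 3 min before a pH 5.0 (DPBS/MES) challenge. Peak FLIPR fluorescence over baseline is given as percentage of the maximal pH 5.0-induced response.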

T1 sequence (Q8NER1 whole entry): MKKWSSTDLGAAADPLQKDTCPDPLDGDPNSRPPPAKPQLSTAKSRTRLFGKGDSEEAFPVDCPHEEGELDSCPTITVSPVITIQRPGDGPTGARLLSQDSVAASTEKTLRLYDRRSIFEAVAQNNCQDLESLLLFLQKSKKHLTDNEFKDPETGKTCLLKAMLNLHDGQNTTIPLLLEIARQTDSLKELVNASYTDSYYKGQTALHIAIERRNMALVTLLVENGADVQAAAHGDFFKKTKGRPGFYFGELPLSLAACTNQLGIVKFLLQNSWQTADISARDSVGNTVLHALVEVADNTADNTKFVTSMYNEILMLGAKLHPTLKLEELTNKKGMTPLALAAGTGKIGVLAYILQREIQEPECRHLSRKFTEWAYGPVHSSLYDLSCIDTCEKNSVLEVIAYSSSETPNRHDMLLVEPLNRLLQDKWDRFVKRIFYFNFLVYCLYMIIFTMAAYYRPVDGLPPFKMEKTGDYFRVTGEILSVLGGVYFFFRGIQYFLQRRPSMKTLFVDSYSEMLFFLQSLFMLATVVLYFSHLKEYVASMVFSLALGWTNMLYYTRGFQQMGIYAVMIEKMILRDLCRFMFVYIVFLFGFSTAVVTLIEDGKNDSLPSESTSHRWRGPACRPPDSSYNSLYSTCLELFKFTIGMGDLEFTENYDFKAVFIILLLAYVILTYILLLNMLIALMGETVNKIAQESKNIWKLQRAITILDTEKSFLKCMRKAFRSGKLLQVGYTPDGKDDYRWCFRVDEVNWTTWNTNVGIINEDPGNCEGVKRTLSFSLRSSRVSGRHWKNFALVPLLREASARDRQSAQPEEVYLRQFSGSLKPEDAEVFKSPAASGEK

| IC50 (human TRPV1 [1]) | human TRPV1 H+ (max % remain) (human TRPV1 [2]) | Compound |
| --- | --- | --- |
| 20 nM | 69% | CC1(C(F)F)C[C@@H](NC(=O)Nc2cccc3c2C[C@H](O)C3)c2cc(Cl)ccc2O1 (stereo partly drawn) [Example 61, 1-[(4R)-6-chloro-2-(difluoromethyl)-2-methyl-3,4-dihydro-2H-chromen-4-yl]-3-[(2R)-2-hydroxy-2,3-dihydro-1H-inden-4-yl]urea] |
| 720 nM | 43% | COc1ccc2c(c1)OCC(Cc1ccc(Cl)c(Cl)c1)C2NC(=O)Nc1cccc2c1CC(O)C2 (stereo not shown) [Example 114, 1-[3-(3,4-dichlorobenzyl)-7-methoxy-3,4-dihydro-2H-chromen-4-yl]-3-(2-hydroxy-2,3-dihydro-1H-inden-4-yl)urea] |
| 13 nM | 56% | O=C(Nc1cccc2c1C[C@H](O)C2)N[C@@H]1CCc2c1cccc2C(F)(F)F [Example 41, 1-[(2R)-2-hydroxy-2,3-dihydro-1H-inden-4-yl]-3-[(1R)-4-(trifluoromethyl)-2,3-dihydro-1H-inden-1-yl]urea] |
| 16 nM | 67% | O=C(Nc1cccc2c1C[C@H](O)C2)N[C@@H]1CCOc2c(OC(F)(F)F)cccc21 [Example 6, 1-[(2R)-2-hydroxy-2,3-dihydro-1H-inden-4-yl]-3-[(4R)-8-(trifluoromethoxy)-3,4-dihydro-2H-chromen-4-yl]urea] |
| 76 nM | 59% | CCC1(CC)C[C@@H](NC(=O)Nc2cccc3c2C[C@H](O)C3)c2ccc(Cl)cc2O1 [Example 54, 1-[(4R)-7-chloro-2,2-diethyl-3,4-dihydro-2H-chromen-4-yl]-3-[(2R)-2-hydroxy-2,3-dihydro-1H-inden-4-yl]urea] |
| 470 nM | 37% | O=C(Nc1c(F)ccc2c1C[C@H](O)C2)N[C@@H]1CC(CF)(CF)Oc2cc(Cl)ccc21 [Example 175, 1-[(4R)-7-chloro-2,2-bis(fluoromethyl)-3,4-dihydro-2H-chromen-4-yl]-3-[(2R)-5-fluoro-2-hydroxy-2,3-dihydro-1H-inden-4-yl]urea] |
| 210 nM | 4% | O=C(Nc1c(F)ccc2c1C[C@@H](O)C2)N[C@@H]1CC(CF)(CF)Oc2cc(Cl)ccc21 [Example 176, 1-[(4R)-7-chloro-2,2-bis(fluoromethyl)-3,4-dihydro-2H-chromen-4-yl]-3-[(2S)-5-fluoro-2-hydroxy-2,3-dihydro-1H-inden-4-yl]urea] |
| 410 nM | 75% | O=C(Nc1cccc2c1C[C@H](O)C2)N[C@@H]1CC2(CCCC2)Oc2ccccc21 [Example 128, 1-[(4R)-3,4-dihydrospiro[chromene-2,1′-cyclopentan]-4-yl]-3-[(2R)-2-hydroxy-2,3-dihydro-1H-inden-4-yl]urea] |
| 1200 nM | 90% | O=C(Nc1cccc2c1C[C@H](O)C2)N[C@H]1CC2(CCC2)Oc2ccc(F)cc21 [Example 101, 1-[(4S)-6-fluoro-3,4-dihydrospiro[chromene-2,1′-cyclobutan]-4-yl]-3-[(2R)-2-hydroxy-2,3-dihydro-1H-inden-4-yl]urea] |
| > 38000 nM | 100% | CC1(C)C[C@H](NC(=O)Nc2cccc3c2C[C@H](O)C3)c2cc(F)ccc2O1 [Example 104, 1-[(4S)-6-fluoro-2,2-dimethyl-3,4-dihydro-2H-chromen-4-yl]-3-[(2R)-2-hydroxy-2,3-dihydro-1H-inden-4-yl]urea] |
| 20 nM | 86% | Cc1c(F)ccc2c1OC(C)(C)C[C@H]2NC(=O)Nc1cccc2c1C[C@H](O)C2 [Example 62, 1-[(4R)-7-fluoro-2,2,8-trimethyl-3,4-dihydro-2H-chromen-4-yl]-3-[(2R)-2-hydroxy-2,3-dihydro-1H-inden-4-yl]urea] |
| 710 nM | 14% | COc1ccc2c(c1)OC(c1ccc(Cl)cc1)CC2NC(=O)Nc1cccc2c1CC(O)C2 (stereo not shown) [Example 122, 1-[2-(4-chlorophenyl)-7-methoxy-3,4-dihydro-2H-chromen-4-yl]-3-(2-hydroxy-2,3-dihydro-1H-inden-4-yl)urea] |
| 1600 nM | 51% | O=C(Nc1cccc2c1CC(O)C2)NC1CC(c2ccccc2Cl)Oc2ccccc21 (stereo not shown) [Example 120, 1-[2-(2-chlorophenyl)-3,4-dihydro-2H-chromen-4-yl]-3-(2-hydroxy-2,3-dihydro-1H-inden-4-yl)urea] |
| 36 nM | 64% | C[C@@]1(C(F)F)C[C@@H](NC(=O)Nc2cccc3c2C[C@H](O)C3)c2ccc(Cl)cc2O1 [Example 20, 1-[(2S,4R)-7-chloro-2-(difluoromethyl)-2-methyl-3,4-dihydro-2H-chromen-4-yl]-3-[(2R)-2-hydroxy-2,3-dihydro-1H-inden-4-yl]urea] |
| 5500 nM | 3% | O=C(Nc1ccc(F)c2c1C[C@H](O)C2)N[C@@H]1CC(CF)(CF)Oc2c(F)cccc21 [Example 152, 1-[(4R)-8-fluoro-2,2-bis(fluoromethyl)-3,4-dihydro-2H-chromen-4-yl]-3-[(2S)-7-fluoro-2-hydroxy-2,3-dihydro-1H-inden-4-yl]urea] |
| 61 nM | 67% | O=C(Nc1cccc2c1CC(O)C2)NC1CC(c2ccccc2)Oc2ccccc21 (stereo not shown) [Example 118, 1-(2-hydroxy-2,3-dihydro-1H-inden-4-yl)-3-(2-phenyl-3,4-dihydro-2H-chromen-4-yl)urea] |
| 51 nM | 74% | CN1CC[C@@H](NC(=O)Nc2cccc3c2C[C@H](O)C3)c2ccc(C(F)(F)F)cc21 [Example 23, 1-[(2R)-2-hydroxy-2,3-dihydro-1H-inden-4-yl]-3-[(4R)-1-methyl-7-(trifluoromethyl)-1,2,3,4-tetrahydroquinolin-4-yl]urea] |
| 3500 nM | 58% | O=C(Nc1ccc(F)c2c1C[C@@H](O)C2)N[C@@H]1CC(CF)(CF)Oc2c(F)cccc21 [Example 170, 1-[(4R)-8-fluoro-2,2-bis(fluoromethyl)-3,4-dihydro-2H-chromen-4-yl]-3-[(2R)-7-fluoro-2-hydroxy-2,3-dihydro-1H-inden-4-yl]urea] |
| 80 nM | 13% | CN1CC[C@@H](NC(=O)Nc2cccc3c2C[C@@H](O)C3)c2ccc(C(F)(F)F)cc21 [Example 84, 1-[(2S)-2-hydroxy-2,3-dihydro-1H-inden-4-yl]-3-[(4R)-1-methyl-7-(trifluoromethyl)-1,2,3,4-tetrahydroquinolin-4-yl]urea] |
| 61 nM | 40% | CC1(C)C[C@@H](NC(=O)Nc2ccc(F)c3c2C[C@@H](O)C3)c2cccc(C(F)(F)F)c2O1 [Example 156, 1-[(4R)-2,2-dimethyl-8-(trifluoromethyl)-3,4-dihydro-2H-chromen-4-yl]-3-[(2R)-7-fluoro-2-hydroxy-2,3-dihydro-1H-inden-4-yl]urea] |
| 570 nM | 75% | O=C(Nc1cccc2c1C[C@H](O)C2)NC1COc2cc(Cl)ccc2C1 (stereo partly drawn) [Example 99, 1-(7-chloro-3,4-dihydro-2H-chromen-3-yl)-3-[(2R)-2-hydroxy-2,3-dihydro-1H-inden-4-yl]urea] |
| 14 nM | 2% | O=C(Nc1cccc2c1C[C@@H](O)C2)N[C@@H]1CC(CF)(CF)Oc2cc(C(F)(F)F)ccc21 [Example 74, 1-[(4R)-2,2-bis(fluoromethyl)-7-(trifluoromethyl)-3,4-dihydro-2H-chromen-4-yl]-3-[(2S)-2-hydroxy-2,3-dihydro-1H-inden-4-yl]urea] |
| 62 nM | 2% | O=C(Nc1c(F)ccc2c1C[C@H](O)C2)N[C@@H]1CC(CF)(CF)Oc2cc(C(F)(F)F)ccc21 [Example 96, 1-[(4R)-2,2-bis(fluoromethyl)-7-(trifluoromethyl)-3,4-dihydro-2H-chromen-4-yl]-3-[(2R)-5-fluoro-2-hydroxy-2,3-dihydro-1H-inden-4-yl]urea] |
| 27 nM | 51% | C[C@]1(C(F)F)C[C@@H](NC(=O)Nc2cccc3c2C[C@H](O)C3)c2ccc(Cl)cc2O1 [Example 33, 1-[(2R,4R)-7-chloro-2-(difluoromethyl)-2-methyl-3,4-dihydro-2H-chromen-4-yl]-3-[(2R)-2-hydroxy-2,3-dihydro-1H-inden-4-yl]urea] |
| 300 nM | 61% | O=C(Nc1cccc2c1C[C@H](O)C2)N[C@@H]1CC(CF)(CF)Oc2c(F)cc(F)cc21 [Example 1, 1-[(4R)-6,8-difluoro-2,2-bis(fluoromethyl)-3,4-dihydro-2H-chromen-4-yl]-3-[(2R)-2-hydroxy-2,3-dihydro-1H-inden-4-yl]urea] |
| 51 nM | 37% | CCC1(CC)C[C@@H](NC(=O)Nc2cccc3c2C[C@H](O)C3)c2ccc(C(F)(F)F)cc2O1 [Example 53, 1-[(4R)-2,2-diethyl-7-(trifluoromethyl)-3,4-dihydro-2H-chromen-4-yl]-3-[(2R)-2-hydroxy-2,3-dihydro-1H-inden-4-yl]urea] |
| 350 nM | 4% | O=C(Nc1ccc(F)c2c1C[C@H](O)C2)N[C@@H]1CCOc2c(OC(F)(F)F)cccc21 [Example 137, 1-[(2S)-7-fluoro-2-hydroxy-2,3-dihydro-1H-inden-4-yl]-3-[(4R)-8-(trifluoromethoxy)-3,4-dihydro-2H-chromen-4-yl]urea] |
| 3500 nM | 83% | O=C(Nc1cccc2c1CC(O)C2)NC1c2ccccc2CC1Cc1ccccc1 (stereo not shown) [Example 125, 1-(2-benzyl-2,3-dihydro-1H-inden-1-yl)-3-(2-hydroxy-2,3-dihydro-1H-inden-4-yl)urea] |
| 32 nM | 47% | 1-[(4R)-2,2-dimethyl-8-(trifluoromethoxy)-3,4-dihydro-2H-chromen-4-yl]-3-[(2R)-7-fluoro-2-hydroxy-2,3-dihydro-1H-inden-4-yl]urea [Example 172] |
